Laboratory results taken from patent US5112846A, “N-hydroxyamide, N-hydroxythioamide, hydroxyurea, and N-hydroxythiourea derivatives of selected nsaids as antiinflammatory agents” (Warner-Lambert Company, priority 1990, dated 1992).

Experiments:
[1] = biological target: T1, 5-Lipoxygenase (Rattus norvegicus, UniProt P12527); experiment: ARBL whole cell 5-lipoxygenase assay (LTB4 formation in RBL-1 cells, A23187 stimulated); type: cell-based; settings: RBL-1 cells; for IC50: read-out: ARBL IC50 (inhibition of LTB4 formation); for inhibition at 16 µM: read-out: ARBL % inhibition of LTB4
T1 construct: host or cells: RBL-1 rat basophilic leukemia cells
T1 sequence (P12527 1-673): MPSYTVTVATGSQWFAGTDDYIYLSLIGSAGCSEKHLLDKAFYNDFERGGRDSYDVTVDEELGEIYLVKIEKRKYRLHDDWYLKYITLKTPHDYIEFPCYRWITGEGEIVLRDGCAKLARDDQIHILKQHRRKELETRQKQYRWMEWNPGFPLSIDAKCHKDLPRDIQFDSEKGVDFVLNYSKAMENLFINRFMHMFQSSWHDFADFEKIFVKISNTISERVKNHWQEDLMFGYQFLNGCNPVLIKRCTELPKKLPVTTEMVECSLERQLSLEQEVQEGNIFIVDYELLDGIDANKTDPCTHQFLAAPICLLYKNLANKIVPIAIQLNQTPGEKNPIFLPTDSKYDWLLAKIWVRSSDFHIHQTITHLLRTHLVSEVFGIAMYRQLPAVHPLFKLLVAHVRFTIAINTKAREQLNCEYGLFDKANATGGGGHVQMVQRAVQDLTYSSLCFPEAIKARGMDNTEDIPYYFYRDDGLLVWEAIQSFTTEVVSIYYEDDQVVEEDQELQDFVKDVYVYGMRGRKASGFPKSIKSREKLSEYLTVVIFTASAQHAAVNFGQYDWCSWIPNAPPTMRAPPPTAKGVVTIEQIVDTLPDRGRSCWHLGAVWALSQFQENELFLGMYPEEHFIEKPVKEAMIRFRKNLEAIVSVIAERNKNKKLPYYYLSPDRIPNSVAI
Procedure: (§1) ARBL/ARBC Whole Cell 5-Lipoxygenase and Cyclooxygenase Assays
(§2) The rat basophilic leukemia cell line (RBL-1) was obtained from the American Type Culture Collection (Rockville, MD).
(§3) Radioimmunoassay (RIA) kits of LTB4 and PGF2α were obtained from Amersham (Arlington Heights, IL) and Seragen (Boston, MA), respectively.
(§4) RBL-1 cells are grown in suspension culture in Eagle's minimum essential medium supplemented with 12% fetal bovine serum at 37° C. in an incubator supplied with air-5% carbon dioxide. Cells are harvested by centrifugation. They are washed with cold phosphate buffered saline pH 7.4 (PBS; NaCl, 7.1 g; Na2 HPO4, 1.15 g; KH2 PO4, 0.2 g; and KCl, 0.2 g/l). Cells are finally suspended in PBS containing 1.0 mM calcium at a density of 2×10^6 cells/ml. Cells are incubated with and without test agent (in DMSO) (1% DMSO is without effect on arachidonic acid metabolism) for ten minutes at room temperature. Calcium ionophore A23187 (5 μM) is added and cells are incubated for seven minutes at 37° C. The reaction is stopped by chilling the tubes on ice for ten minutes. Cells are separated by centrifugation and the supernatant is stored at -20° C. Aliquots (100 μl) are analyzed for LTB4 and PGF2α using radioimmunoassay kits as provided by the supplier.
(§5) Tables 1-4 contain biochemical data obtained from this whole cell assay either as IC50 s which are calculated as the amount of test compound causing 50% inhibition of LTB4 or PGF2α formation or % inhibition of LTB4 or PGF2α at the indicated amount expressed as μM.

[2] = biological target: T2, Cyclooxygenase (Rattus norvegicus, UniProt Q63921); experiment: ARBC whole cell cyclooxygenase assay (PGF2α formation in RBL-1 cells, A23187 stimulated); type: cell-based; settings: RBL-1 cells; for IC50: read-out: ARBC IC50 (inhibition of PGF2α formation); for inhibition at 16 µM: read-out: ARBC % inhibition of PGF2α
T2 construct: host or cells: RBL-1 rat basophilic leukemia cells
T2 sequence (Q63921 27-602): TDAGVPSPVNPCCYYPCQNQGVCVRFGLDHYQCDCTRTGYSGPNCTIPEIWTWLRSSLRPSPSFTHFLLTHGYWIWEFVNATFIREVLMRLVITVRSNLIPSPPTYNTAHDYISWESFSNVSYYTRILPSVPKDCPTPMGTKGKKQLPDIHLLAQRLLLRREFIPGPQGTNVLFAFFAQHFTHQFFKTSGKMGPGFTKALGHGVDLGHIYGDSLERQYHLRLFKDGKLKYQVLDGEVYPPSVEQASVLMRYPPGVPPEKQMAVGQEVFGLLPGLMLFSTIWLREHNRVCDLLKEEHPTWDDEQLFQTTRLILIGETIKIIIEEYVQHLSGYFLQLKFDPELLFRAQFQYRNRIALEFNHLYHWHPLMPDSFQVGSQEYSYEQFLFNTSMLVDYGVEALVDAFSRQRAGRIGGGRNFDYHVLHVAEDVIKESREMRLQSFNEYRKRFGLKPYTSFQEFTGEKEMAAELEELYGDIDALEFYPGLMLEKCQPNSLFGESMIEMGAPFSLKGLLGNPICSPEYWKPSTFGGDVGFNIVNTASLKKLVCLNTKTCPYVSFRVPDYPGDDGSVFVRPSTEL
Procedure: as §1, §2, §3, §4, §5

Work on CC(=O)N(O)Cc1ccccc1Nc1c(Cl)ccc(C)c1Cl [Example 54, N-[[2-[(2,6-Dichloro-3-methylphenyl)amino]phenyl]methyl]-N-hydroxyacetamide] yielded an IC50 [1] of 180 nM and an IC50 [2] of 5000 nM.
CC(=O)N(O)Cc1ccccc1Nc1cccc(C(F)(F)F)c1 [Example 55] gave an IC50 [1] of 280 nM and an IC50 [2] of 5200 nM.
Molecule CNC(=O)N(O)Cc1ccccc1Nc1cccc(C(F)(F)F)c1 [Example 56] has an IC50 [1] of 120 nM and an IC50 [2] of 2200 nM.
Molecule CCOC(=O)N(O)Cc1ccccc1Nc1cccc(C(F)(F)F)c1 [Example 57, N-Hydroxy-N-[[2-[[3-(trifluoromethyl)phenyl]amino]phenyl]methyl]carbamic acid, ethyl ester] has an inhibition at 16 µM [1] of 100% and an inhibition at 16 µM [2] of 91%.
With CCOC(=O)CC(=O)N(O)Cc1c(C)n(C(=O)c2ccc(Cl)cc2)c2ccc(OC)cc12 [Example 64, 3-[[[1-(4-Chlorobenzoyl)-5-methoxy-2-methyl-1H-indol-3-yl]methyl]hydroxyamino]-3-oxo-propanoic acid, ethyl ester] the IC50 [1] was 1100 nM and the IC50 [2] was 14000 nM.
In the case of COC(=O)CCC(=O)N(O)Cc1c(C)n(C(=O)c2ccc(Cl)cc2)c2ccc(OC)cc12 [Example 65, 4-[[[1-(4-Chlorobenzoyl)-5-methoxy-2-methyl-1H-indol-3-yl]methyl]hydroxyamino]-4-oxo-butanoic acid, methyl ester], the IC50 [1] is reported as 1300 nM and the IC50 [2] is reported as 9400 nM.
COc1ccc2c(c1)c(CN(O)C(=O)N(C)C)c(C)n2C(=O)c1ccc(Cl)cc1 [Example 70, 1-(4-Chlorobenzoyl)-N-[(dimethylamino)carbonyl]-N-hydroxy-5-methoxy-2-methyl-1H-indole-3-methanamine] was tested, and the inhibition at 16 µM [1] was 100% and the inhibition at 16 µM [2] was 73%.
Work on C=CCNC(=O)N(O)Cc1c(C)n(C(=O)c2ccc(Cl)cc2)c2ccc(OC)cc12 [Example 71, 1-(4-Chlorobenzoyl)-N-hydroxy-5-methoxy-2-methyl-N-[(2-propenylamino)carbonyl]-1H-indole-3-methanamine] yielded an inhibition at 16 µM [1] of 100% and an inhibition at 16 µM [2] of 50%.
With CNC(=S)N(O)Cc1c(C)n(C(=O)c2ccc(Cl)cc2)c2ccc(OC)cc12 [Example 74, 1-(4-Chlorobenzoyl)-N-hydroxy-5-methoxy-2-methyl-N-[(methylamino)thioxomethyl]-1H-indole-3-methanamine] the IC50 [1] was 400 nM and the IC50 [2] was 7100 nM.
